Where two headings read alike, the source gives them in different places.
Experiments:
A549 cells = test: Cultured cancer cell viability assay (cell titer glo, A549 CTG); format: cell-based; details: Homo sapiens
From the text: Anti-tumor effects are monitored in cultured cancer cells after several days of compound treatment. The cell titer glo assay (Promega) measures the amount of ATP present as a proxy for cellular viability. Cellular counting is done using high-content microscopy followed by image analysis. A hanging drop 3D-culture system (3D Biomatrix) is used followed by cell titer glo to measure growth in a tumor-like environment.
The cellular assay provides information about the anti-neoplastic activity of the compounds of the invention. The compounds are tested against cultured cancer cells to determine whether or not the compounds of the invention are capable of intersecting with cancer cells to minimize or eliminate such cells. The assay involves establishing colonies of such cells and then treating them with the test compound under specified conditions and analysis regime to determine results.
(§1) Plate 25 μL of A549 cells in every well of 384-well plate using multidrop.
One (1) white plate for viability at 500 cells/well.
Serial dilute compounds with a 10 point 2-fold serial dilution in DMSO to make 250× stock compound solution
Dilute compounds 1:125 in cell culture media to make a 2× solution Add 25 μl of dilution compounds to cell plates in well duplicates
Put cells back in incubator (6 hr incubation for black plates, 72 hr incubation for white plates).
Thaw an aliquot of frozen cell titer glo (Promega G7572) at room temperature.
Add 45 mL of NaCl/PBS solution to 5 ml of cell titer glo (10×).
Remove white plates from incubator, leave at room temp for 30 minutes.
Add 25 μl of diluted cell titer glo to each well.
Shake plate for >1 minute.
Incubate plate for >5 minutes to stabilize luminescence. • Luminescence is stable for up to 3 hours.
Read luminescence on plate reader
The results are reported on the following Table I for Examples A-EE and the E1-E4 compounds as 50 percent Inhibitory concentration at candidate doses of less than 1 μM, less than 3 μM and less than 10 μM for both of the K48 antibody and the p53 (CTG) antibody assays

p97 = p97 (Homo sapiens, UniProt P55072); test: P97 ATPase biochemical assay (ADP Glo)
p97, sequence (P55072 whole entry): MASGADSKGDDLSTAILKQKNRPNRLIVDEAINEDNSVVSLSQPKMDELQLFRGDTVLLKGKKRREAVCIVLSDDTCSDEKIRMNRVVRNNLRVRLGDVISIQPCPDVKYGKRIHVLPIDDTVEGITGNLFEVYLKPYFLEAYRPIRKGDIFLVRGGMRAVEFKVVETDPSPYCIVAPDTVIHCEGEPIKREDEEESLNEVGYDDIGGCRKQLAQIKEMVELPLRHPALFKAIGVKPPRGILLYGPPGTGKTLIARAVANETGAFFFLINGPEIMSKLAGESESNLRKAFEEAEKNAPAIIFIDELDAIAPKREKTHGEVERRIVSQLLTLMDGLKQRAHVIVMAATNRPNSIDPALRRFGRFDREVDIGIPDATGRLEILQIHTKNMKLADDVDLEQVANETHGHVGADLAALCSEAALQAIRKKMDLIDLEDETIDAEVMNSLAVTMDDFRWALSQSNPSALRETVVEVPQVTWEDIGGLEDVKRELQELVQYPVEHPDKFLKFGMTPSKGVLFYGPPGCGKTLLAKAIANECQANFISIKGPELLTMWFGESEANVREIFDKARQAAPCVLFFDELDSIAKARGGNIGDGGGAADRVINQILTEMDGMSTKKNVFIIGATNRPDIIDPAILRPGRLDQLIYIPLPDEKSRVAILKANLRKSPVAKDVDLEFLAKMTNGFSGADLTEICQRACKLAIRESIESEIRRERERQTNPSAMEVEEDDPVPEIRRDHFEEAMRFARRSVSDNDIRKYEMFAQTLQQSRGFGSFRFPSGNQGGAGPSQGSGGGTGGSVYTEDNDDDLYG
Procedure: The ATPase assay is performed according the following protocol: Purified enzyme (20 nM p97), substrate (20 μM ATP) and a dose titration of compounds are mixed in buffer (50 mM TRIS pH 7.5, 20 mM MgCl2, 0.02% TX-100, 1 mM DTT, 0.2% (v/v) glycerol) and incubated at 37° C. for 15 minutes. The reaction is terminated and the level of product generated is measured using the ADP Glo Assay Kit (Promega, Madison Wis.). Plotting product generated versus compound concentration and using a four-parameter fit model generates an IC50 value for each compounds.
The p97 assay is an initial screening assay used to determine inhibitory activity of the monocyclic pyrimidine compounds of the invention against the p97 complex. As discussed above, inhibition of activity of the p97 proteosome complex can enable apoptosis and cause elimination of neoplastic cells (cancer cells). The method follows that of Christianson in Nat. Cell Biol., (2011) 14:93.
Assay Buffer is a mixture of 50 mM TRIS pH 7.5, 20 mM MgCl2, 0.02% TX-100, 1 mM DTT and 0.2% (v/v) Glycerol. The well plate is Platetype: Corning 3674, 384w plate. The identification kit is an ADP glo kit (Promega): stop buffer, detection reagent.
Serial dilute compound in DMSO in a 1:3.33-fold 10 point serial dilution.
0.5 μL compound serial diluted in DMSO (Final Conc. 10%)
2 μL ATP (Final Conc.=20 uM, diluted in assay buffer)
2.5 μL p97 (Final Conc.=20 nM, diluted in assay buffer)
Incubate at 37 degC for 15 min.
Add 5 μL of stop buffer, incubate at RT for 40 min.
Add 10 μL of detection reagent, incubate at RT for 30 min.
Read luminescence on Envision plate reader. • Upon obtaining the data from the luminescence reading, the data may be analyzed as follows:
Normalize luminescence data using no enzyme (full inhibition) and no compound (no inhibition) controls. Plot normalized luminescence data against log-transformed concentration values and fit to a sigmoidal curve to determine IC50 values (done in Collaborative Drug Discovery software).
The results are reported on the following Table for Examples A-EE and the E1-E4 compounds as 50 percent Inhibitory concentration at candidate doses of less than 30 nM, less than 100 nM, less than 300 nM and less than 1000 nM for the p97 inhibition assay.

[1] = system: K48 poly-Ubiquitin accumulation in A549 cells; test: A549 K48 poly-ubiquitin accumulation immunofluorescence assay; format: cell-based; details: Homo sapiens
Procedure: Image-analysis is used to generate quantitative data from these assays that can be fit to a four-parameter sigmoid curve to derive IC50 values. Substrates of the ubiquitin-proteasome system, such as p53, are monitored after tumor cell lines are incubated with compounds for several hours. Accumulation of these proteins indicates an inhibition of proteasome-mediated degradation. Accumulation of lysine-48 chain linkage of poly-ubiquitin is also monitored by immunofluorescence as an indicator of ubiquitin-proteasome system inhibition. Both LC3 and SQSTM1 are mediators of autophagy. The localization and amounts of these proteins are monitored by immunofluorescence and report on the activity and inhibition of autophagy in response to p97 inhibition.
as §1
Two (2) black plates for IF at 2500 cells/well
Serial dilute compounds with a 10 point 2-fold serial dilution in DMSO to make 250× stock compound solution Dilute compounds 1:125 in cell culture media to make a 2× solution Add 25 μl of dilution compounds to cell plates in well duplicates Put cells back in incubator (6 hr incubation for black plates, 72 hr incubation for white plates).
Incubate cells in black plates with compound at 37 degC for 6 hrs. add 15 μL of 16% Paraformaldehyde (PFA) directly into media of each well, incubate at room temp for 5 min, flick plate and wash in 50 μL of PBS block in 50 μL of Blocking Buffer for 30 minutes (can go up to several hours) Blocking buffer: 1×PBS, 1% BSA, 0.3% Triton-X100, Hoechst (1:10,000) incubate in 25 μL of primary antibody in blocking buffer at 4 degC over night […]
Secondary Antibodies: • AlexaFluor488 Goat anti-Rabbit 1:2,000 (Life Tech A11008) • AlexaFluor555 Goat anti-Mouse 1:2,000 (Life Tech A21422) incubate in 25 μl of secondary antibody (1:2,000) in blocking buffer for 1-2 hrs at room temp (alexafluor488-anti-Rabbit/alexafluor555-anti-Mouse) Image plates in high content microscope with 405 nm, 488 nm and 555 nm filters Nuclear counts and cellular intensities of each markers are measured using Hoechst as a nuclear marker with an automated image analysis protocol using Matlab software (Math Works) The results are reported on the following Table I for Examples A-EE and the E1-E4 compounds as 50 percent Inhibitory concentration at candidate doses of less than 1 μM, less than 3 μM and less than 10 μM for both of the K48 antibody and the p53 (CTG) antibody assays

[2] = A549, Table II, preliminary assays, read-out: Cell Titre Glow Assay IC50
[3] = A549 cells, 72 hr incubation, cell titer glo, read-out: A549 CTG IC50
[4] = 20 nM p97, 20 uM ATP, 37 degC 15 min
[5] = A549, Table II, preliminary assays, read-out: K48 poly-Ubiquitin Accumulation
[6] = A549 cells, 6 hr incubation, K48-Ub antibody, read-out: A549 K48 IC50

In the case of `Cc1cc(NCc2ccccc2)nc(-n2c(C)cc3c(C(N)=O)cccc32)n1` [Example 1, 1-[4-(benzylamino)-6-methylpyrimidin-2-yl]-2-methyl-1H-indole-4-carboxamide], the IC50 (A549 cells; [2]) is reported as 2010 nM, the IC50 (A549 cells; [3]) is reported as < 3000 nM and the IC50 (p97; [4]) is reported as < 100 nM. For the same molecule, the IC50 (p97; Table II, preliminary assays) was 42 nM, the IC50 [1, 5] was 3000 nM and the IC50 [1, 6] was < 10000 nM.
For `Cc1cnc(-n2c(C)cc3c(C(N)=O)cccc32)nc1NCc1ccccc1` [Example 2, 1-[4-(benzylamino)-5-methylpyrimidin-2-yl]-2-methyl-1H-indole-4-carboxamide], the IC50 (A549 cells; [2]) was 970 nM, the IC50 (A549 cells; [3]) was < 1000 nM and the IC50 (p97; [4]) was < 30 nM. For the same molecule, the IC50 (p97; Table II, preliminary assays) was 22 nM, the IC50 [1, 5] was 1600 nM and the IC50 [1, 6] was < 3000 nM.
`COc1cnc(-n2c(C)cc3c(C(N)=O)cccc32)nc1NCc1ccccc1` [Example 3, 1-[4-(benzylamino)-5-methoxypyrimidin-2-yl]-2-methyl-1H-indole-4-carboxamide] was tested, and the IC50 (A549 cells; [2]) was 467 nM, the IC50 (A549 cells; [3]) was < 1000 nM and the IC50 (p97; [4]) was < 30 nM. The IC50 (p97; Table II, preliminary assays) was 7 nM, the IC50 [1, 5] was 890 nM and the IC50 [1, 6] was < 1000 nM.
`Cc1cc2c(C(N)=O)cccc2n1-c1ncc(C(F)(F)F)c(NCc2ccccc2)n1` [Example 4, 1-[4-(benzylamino)-5-(trifluoromethyl)pyrimidin-2-yl]-2-methyl-1H-indole-4-carboxamide] was tested, and the IC50 (A549 cells; [3]) was < 3000 nM, the IC50 (p97; [4]) was < 30 nM and the IC50 [1, 6] was < 3000 nM.
For `Cc1cc2c(C(N)=O)cccc2n1-c1ncc(Cl)c(NCc2ccccc2)n1` [Example 5, 1-[4-(benzylamino)-5-chloropyrimidin-2-yl]-2-methyl-1H-indole-4-carboxamide], the IC50 (A549 cells; [2]) was 1790 nM, the IC50 (A549 cells; [3]) was < 3000 nM and the IC50 (p97; [4]) was < 30 nM. For the same molecule, the IC50 (p97; Table II, preliminary assays) was 12 nM, the IC50 [1, 5] was 1400 nM and the IC50 [1, 6] was < 3000 nM.
In the case of `CCc1cnc(-n2c(C)cc3c(C(N)=O)cccc32)nc1NCc1ccccc1` [Example 6, 1-[4-(benzylamino)-5-ethylpyrimidin-2-yl]-2-methyl-1H-indole-4-carboxamide], the IC50 (A549 cells; [3]) is reported as < 1000 nM, the IC50 (p97; [4]) is reported as < 30 nM and the IC50 [1, 6] is reported as < 1000 nM.
For `COc1c(C)nc(-n2c(C)cc3c(C(N)=O)cccc32)nc1NCc1ccccc1` [Example 7, 1-[4-(benzylamino)-5-methoxy-6-methylpyrimidin-2-yl]-2-methyl-1H-indole-4-carboxamide], the IC50 (A549 cells; [3]) was < 3000 nM, the IC50 (p97; [4]) was < 30 nM and the IC50 [1, 6] was < 3000 nM.
In the case of `Cc1nc(-n2c(C)cc3c(C(N)=O)cccc32)nc(NCc2ccccc2)c1C(C)C` [Example 8, 1-[4-(benzylamino)-6-methyl-5-(propan-2-yl)pyrimidin-2-yl]-2-methyl-1H-indole-4-carboxamide], the IC50 (A549 cells; [3]) is reported as < 3000 nM, the IC50 (p97; [4]) is reported as < 30 nM and the IC50 [1, 6] is reported as < 1000 nM.
For `Cc1c(NCc2ccccc2)nc(-n2c(C)cc3c(C(N)=O)cccc32)nc1C(F)(F)F` [Example 9, 1-[4-(benzylamino)-5-methyl-6-(trifluoromethyl)pyrimidin-2-yl]-2-methyl-1H-indole-4-carboxamide], the IC50 (A549 cells; [3]) was < 3000 nM, the IC50 (p97; [4]) was < 30 nM and the IC50 [1, 6] was < 3000 nM.
In the case of `Cc1cc2c(C(N)=O)cccc2n1-c1ncc(C(N)=O)c(NCc2ccccc2)n1` [Example 10, 1-[4-(benzylamino)-5-carbamoylpyrimidin-2-yl]-2-methyl-1H-indole-4-carboxamide], the IC50 (A549 cells; [3]) is reported as < 10000 nM, the IC50 (p97; [4]) is reported as < 100 nM and the IC50 [1, 6] is reported as < 10000 nM.
For `Cc1nc(-n2ncc3c(C(N)=O)cccc32)nc(NCc2ccccc2)c1C(C)C` [Example 11, 1-(4-(benzylamino)-5-isopropyl-6-methylpyrimidin-2-yl)-1H-indazole-4-carboxamide], the IC50 (A549 cells; [3]) was < 3000 nM, the IC50 (p97; [4]) was < 300 nM and the IC50 [1, 6] was < 3000 nM.
For `Cc1cc2c(C(N)=O)cccc2n1-c1ncc(C(C)C)c(NCc2ccccc2)n1` [Example 12, 1-(4-(benzylamino)-5-(propan-2-yl)pyrimidin-2-yl)-2-methyl-1H-indole-4-carboxamide], the IC50 (A549 cells; [2]) was 730 nM, the IC50 (A549 cells; [3]) was < 1000 nM and the IC50 (p97; [4]) was < 30 nM. The IC50 (p97; Table II, preliminary assays) was 9 nM, the IC50 [1, 5] was 640 nM and the IC50 [1, 6] was < 3000 nM.
For `Cc1cc2c(C(N)=O)cccc2n1-c1ncc(N(C)C)c(NCc2ccccc2)n1` [Example 13, 1-(4-(benzylamino)-5-(dimethylamino)pyrimidin-2-yl)-2-methyl-1H-indole-4-carboxamide], the IC50 (A549 cells; [3]) was < 3000 nM, the IC50 (p97; [4]) was < 30 nM and the IC50 [1, 6] was < 1000 nM.
For `Cc1nc(-n2c(C)cc3c(C(N)=O)cccc32)nc(NCc2ccccc2)c1N(C)C` [Example 15, 1-[4-(benzylamino)-5-(dimethylamino)-6-methylpyrimidin-2-yl]-2-methyl-1H-indole-4-carboxamide], the IC50 (A549 cells; [3]) was < 3000 nM, the IC50 (p97; [4]) was < 30 nM and the IC50 [1, 6] was < 3000 nM.
For `COCc1cnc(-n2c(C)cc3c(C(N)=O)cccc32)nc1NCc1ccccc1` [Example 18, 1-[4-(benzylamino)-5-(methoxymethyl)pyrimidin-2-yl]-2-methyl-1H-indole-4-carboxamide], the IC50 (A549 cells; [3]) was < 10000 nM, the IC50 (p97; [4]) was < 300 nM and the IC50 [1, 6] was < 3000 nM.
`Cc1cc2c(C(N)=O)cccc2n1-c1ncc(S(C)(=O)=O)c(NCc2ccccc2)n1` [Example 19, 1-[4-(benzylamino)-5-(methylsulfonyl)pyrimidin-2-yl]-2-methyl-1H-indole-4-carboxamide] was tested, and the IC50 (A549 cells; [3]) was < 3000 nM, the IC50 (p97; [4]) was < 100 nM and the IC50 [1, 6] was < 3000 nM.
For `CC(=O)NCc1cnc(-n2c(C)cc3c(C(N)=O)cccc32)nc1NCc1ccccc1` [Example 24, 1-[4-(benzylamino)-5-(acetamidomethyl)pyrimidin-2-yl]-2-methyl-1H-indole-4-carboxamide], the IC50 (A549 cells; [3]) was < 10000 nM, the IC50 (p97; [4]) was < 300 nM and the IC50 [1, 6] was < 10000 nM.

From patent publication US9868722B2, “Monocyclic pyrimidine/pyridine compounds as inhibitors of P97 complex” (Cleave Biosciences, Inc., priority 2013, dated 2018)
